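Protocol summary: plate cells (96-well), add compound at 5 concentrations, incubate 48 h, interpolate endpoints linearly. TGI marks complete inhibition of growth.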
Key:
Assay in all cases: inhibition of tumour cell growth, NCI panel, 48 h
[1] = tested on: HS 578T breast
[2] = tested on: SK-OV-3 ovarian
[3] = tested on: CCRF-CEM leukemia
[4] = tested on: PC-3 prostate
[5] = tested on: DU-145 prostate
[6] = tested on: NCI-H460 lung
[7] = tested on: MOLT-4 leukemia
[8] = tested on: IGROV1 ovarian
[9] = tested on: ACHN renal
[10] = tested on: HT29 colon
[11] = tested on: NCI-H226 lung
[12] = tested on: HCT-116 colon
[13] = tested on: HOP-92 NSCLC
[14] = tested on: UACC-257 melanoma
[15] = tested on: OVCAR-8 ovarian
[16] = tested on: HL-60(TB) leukemia
[17] = tested on: OVCAR-4 ovarian
[18] = tested on: SF-539 CNS
[19] = tested on: SK-MEL-28 melanoma
[20] = tested on: NCI/ADR-RES ovarian
[21] = tested on: UO-31 renal
[22] = tested on: M14 melanoma
[23] = tested on: SNB-19 CNS
[24] = tested on: MDA-N
[25] = tested on: SNB-75 CNS
[26] = tested on: A549 NSCLC
[27] = tested on: UACC-62 melanoma
[28] = tested on: MCF7 breast
[29] = tested on: COLO 205 colon
[30] = tested on: EKVX NSCLC
[31] = tested on: MDA-MB-231 breast
[32] = tested on: T-47D breast
[33] = tested on: KM12 colon
[34] = tested on: CAKI-1 renal
[35] = tested on: NCI-H23 lung
[36] = tested on: SR leukemia
[37] = tested on: 786-0 renal
[38] = tested on: HOP-62 NSCLC
[39] = tested on: HCC-2998 colon
[40] = tested on: A498 renal
[41] = tested on: OVCAR-3 ovarian
[42] = tested on: SF-268 CNS
[43] = tested on: TK-10 renal
[44] = tested on: HCT-15 colon
[45] = tested on: NCI-H522 lung
[46] = tested on: SF-295 CNS
[47] = tested on: SW-620 colon
[48] = tested on: MDA-MB-435
[49] = tested on: MALME-3M melanoma
[50] = tested on: RXF 393 renal
[51] = tested on: K-562 leukemia
[52] = tested on: SK-MEL-2 melanoma
[53] = tested on: SK-MEL-5 melanoma
[54] = tested on: LOX IMVI melanoma
[55] = tested on: BT-549 breast
[56] = tested on: RPMI-8226 leukemia
[57] = tested on: U251 CNS
[58] = tested on: SN12C renal
[59] = tested on: OVCAR-5 ovarian

Measured: TGI

COc1ccc(NC(=O)CC(=O)N2N=C(C)C(N=Nc3ccc(S(=O)(=O)c4ccc(N=NC5C(=O)N(C(=O)CC(=O)Nc6ccc(OC)cc6)N=C5C)cc4)cc3)C2=O)cc1 (stereo unspecified)
not listed: [59]
> 100 µM: all other assays above

O=C(N/N=C/c1ccc2c(c1)CCC2)c1ccccc1O
28.3 µM: [39]
60 µM: [52]
73.8 µM: [20]
61.5 µM: [49]
71 µM: [1]
57.5 µM: [26]
30 µM: [2]
45 µM: [37]
61.1 µM: [45]
70.5 µM: [27]
50.7 µM: [33]
95.1 µM: [14]
69.6 µM: [44]
65.8 µM: [18]
71.9 µM: [15]
94.6 µM: [21]
64.8 µM: [24]
92.2 µM: [30]
41.5 µM: [41]
33.7 µM: [57]
38 µM: [25] | [38]
55.9 µM: [8]
74.5 µM: [34]
36.8 µM: [40]
51.9 µM: [48]
63.2 µM: [6]
41.7 µM: [55]
65.3 µM: [13]
58.6 µM: [31]
34.8 µM: [9]
74.7 µM: [42]
36.6 µM: [46]
62 µM: [50]
68.2 µM: [19]
34 µM: [28]
60.2 µM: [17]
51.1 µM: [43]
62.7 µM: [58]
53.4 µM: [4]
77.7 µM: [11]
82.2 µM: [35]
43.7 µM: [12]
44.7 µM: [23]
> 100 µM: all other assays above

COc1nc2c(c(=O)n1C)N(C(C)=O)C1C(N2)OCC(OC(C)=O)C1OC(C)=O (stereo unspecified)
> 10 µM: all assays above

Reference: PubChem BioAssay (NCI)
